For the assay, the target named is T1, HCV NS3 helicase NS3h_1b(con1) (Hepatitis C virus genotype 1b, UniProt Q9WMX2).
T1 construct: truncated C-terminally His-tagged NS3 proteins lacking the N-terminal protease, called NS3h; His-tag (C); made in house
Kind of assay: MBHA screen of NCI mechanistic set library at 20 μM (percent inhibition, compound interference). It counts as biochemical. The conditions noted are these: compounds at 20 μM; for Inh. (%) (Inhibition): calculated from Equation 1. An outline of the steps:
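Molecular beacon-based DNA unwinding assay; compounds screened at 20 μM in triplicate, with DMSO-only negative and 500 nM dT20 positive controls. Fluorescence (ex 643/em 670 nm) was read before and 30 min after adding ATP to 1 mM. Percent inhibition came from the change relative to DMSO controls; interference from pre-ATP fluorescence versus DMSO controls.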

Setting [1] is: MBHA with DNA substrate, assay interference calculated with Equation 2.
Where [2] appears, read: assay interference calculated with Equation 2 (fluorescence vs DMSO-only controls before ATP).

T1 sequence (Q9WMX2 1192-1657): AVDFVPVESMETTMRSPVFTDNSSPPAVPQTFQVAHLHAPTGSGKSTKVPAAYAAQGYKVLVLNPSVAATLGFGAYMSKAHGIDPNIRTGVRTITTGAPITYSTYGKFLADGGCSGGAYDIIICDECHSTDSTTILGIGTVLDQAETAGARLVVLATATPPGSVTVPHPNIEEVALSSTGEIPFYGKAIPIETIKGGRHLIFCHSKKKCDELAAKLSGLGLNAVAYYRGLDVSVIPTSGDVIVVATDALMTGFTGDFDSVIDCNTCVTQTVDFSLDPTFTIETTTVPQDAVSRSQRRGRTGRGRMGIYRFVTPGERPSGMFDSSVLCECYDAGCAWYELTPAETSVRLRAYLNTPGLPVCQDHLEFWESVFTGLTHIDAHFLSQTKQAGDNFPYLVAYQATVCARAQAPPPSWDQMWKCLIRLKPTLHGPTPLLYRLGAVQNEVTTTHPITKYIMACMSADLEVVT

As for `O=C1NC(c2cccc3ccccc23)Nc2ccccc21` (centres unmarked) [Compound 145669], under setting [1], the “Int.* (Ratio) (Interference)” value is 1.14 Ratio. In addition, the “Inh. (%) (Inhibition)” value (MBHA with DNA substrate) is 14.8%.

On to `O=c1cnn(C2OC(CO)C(O)C2O)c(=S)[nH]1` (centres unmarked) [Compound 146268], for which the “Int.* (Ratio) (Interference)” value under setting [1] was 1.15 Ratio. Further, the “Inh. (%) (Inhibition)” value (MBHA with DNA substrate) was 0.2%.

`COc1cc2c[n+](C)c3c4cc5c(cc4ccc3c2cc1OC)OCO5` [Compound 146397]: the “Int.* (Ratio) (Interference)” value under setting [1] is on record as 0.67 Ratio. Further, the “Inh. (%) (Inhibition)” value (MBHA with DNA substrate) is 34.3%.

For the molecule `O=c1[nH]c(=O)n(C2OC(CO)C(O)C2O)cc1F` (centres unmarked) [Compound 146604], under setting [1], the “Int.* (Ratio) (Interference)” value is recorded as 1.12 Ratio. Moreover, for the setting “MBHA with DNA substrate”, the “Inh. (%) (Inhibition)” value is 6.1%.

As to `COc1ccc(C[C@@H]2NC[C@@H](O)[C@@H]2OC(C)=O)cc1.Cl` [Compound 147340], for the setting “MBHA with a DNA substrate”, the “Inh. (%) (Inhibition)” value is on record as −5.2%. Under setting [2], the “Int.* (Ratio) (Interference)” value is 1.01 Ratio.

As for `O=c1[nH]c(=O)n(C2CCCO2)cc1F` (centres unmarked) [Compound 148958], the “Int.* (Ratio) (Interference)” value under setting [1] is recorded as 0.99 Ratio. Also, the “Inh. (%) (Inhibition)” value (MBHA with DNA substrate) is −8.9%.

In the case of `COc1cc(NC(C)CCCN)c2ncccc2c1.O=P(O)(O)O.O=P(O)(O)O` (centres unmarked) [Compound 149765], the “Int.* (Ratio) (Interference)” value under setting [1] was 0.94 Ratio. Moreover, the “Inh. (%) (Inhibition)” value (MBHA with DNA substrate) is 13.2%.

In the case of `COc1cc2cc(c1Cl)N(C)C(=O)C[C@H](OC(=O)[C@H](C)N(C)C(C)=O)[C@]1(C)O[C@H]1[C@H](C)[C@@H]1C[C@@](O)(NC(=O)O1)[C@H](OC)/C=C/C=C(\C)C2` [Compound 153858], the “Int.* (Ratio) (Interference)” value under setting [1] is recorded as 0.95 Ratio. For the same molecule, the “Inh. (%) (Inhibition)” value (MBHA with DNA substrate) is 0.3%.

As for `COC(=O)Nc1nc2ccc(Br)cc2[nH]1` [Compound 154754], the “Inh. (%) (Inhibition)” value (MBHA with a DNA substrate) was 7.6%. For the same molecule, the “Int.* (Ratio) (Interference)” value under setting [2] is 0.91 Ratio.

As for `COc1cc2cc3c4cc(OC)c(OC)cc4cc[n+]3c(C)c2cc1OC.O=C(O)CS(=O)(=O)[O-]` [Compound 154890], the “Int.* (Ratio) (Interference)” value under setting [1] is on record as 0.29 Ratio. Further, under “MBHA with DNA substrate”, the “Inh. (%) (Inhibition)” value is listed as 79.4%.

With `N#CC1CC(c2ccccc2)Nc2cc(Cl)ccc2N1` (centres unmarked) [Compound 155595], the “Int.* (Ratio) (Interference)” value under setting [1] is given as 1.17 Ratio. Besides, the “Inh. (%) (Inhibition)” value (MBHA with DNA substrate) was 2.3%.

Regarding `COC(=O)[C@@H]1[C@H](O)[C@H](C)[C@H](O)[C@H](C)/C=C\C=C(/C)C(=O)Nc2c(C)c(OC(C)=O)c3c(c2O)C(=O)C(C)=C2OCOC(=C23)/C(C)=C/[C@@](C)(O)[C@H](O)[C@@H](C)[C@H]1OC(C)=O` [Compound 156215], under “MBHA with a DNA substrate”, the “Inh. (%) (Inhibition)” value was −23.4%. Further, the “Int.* (Ratio) (Interference)” value under setting [2] is 1.02 Ratio.

In the case of `CC(=O)OCc1cc(=O)n(C)c2c3c4c(cc12)c(C)cc(=O)n4CO3` [Compound 157004], the “Inh. (%) (Inhibition)” value (MBHA with a DNA substrate) is 7.1%. In addition, the “Int.* (Ratio) (Interference)” value under setting [2] is 1.11 Ratio.

For `CCN(CC)CCCC(C)Nc1ccnc(/C=C/c2ccc(Cl)cc2)c1` (centres unmarked) [Compound 157389], the “Inh. (%) (Inhibition)” value (MBHA with a DNA substrate) is 10.6%. Besides, the “Int.* (Ratio) (Interference)” value under setting [2] is 0.88 Ratio.

Take `Cc1ccc([S+](c2ccc(C)cc2)c2ccc(C)cc2)cc1` [Compound 157930]: the “Inh. (%) (Inhibition)” value (MBHA with a DNA substrate) is 7.6%. Further, the “Int.* (Ratio) (Interference)” value under setting [2] is recorded as 0.86 Ratio.

With `CCOC(=O)/C=C/c1c(C)[nH]c(=O)[nH]c1=O` [Compound 159935], under setting [1], the “Int.* (Ratio) (Interference)” value is 0.89 Ratio. Besides, for the setting “MBHA with DNA substrate”, the “Inh. (%) (Inhibition)” value was −0.8%.

For the molecule `COc1ccc2cc3[n+](cc2c1OC)CCc1cc2c(cc1-3)OCO2.[Cl-]` [Compound 163088], under setting [1], the “Int.* (Ratio) (Interference)” value is 0.87 Ratio. Further, where the note is “MBHA with DNA substrate”, the “Inh. (%) (Inhibition)” value is given as 13.3%.

On to `Cc1c2cnccc2c(C)c2c1c1ccccc1n2CCOC(=O)c1ccccc1` [Compound 163443], for which the “Int.* (Ratio) (Interference)” value under setting [1] is 0.88 Ratio. Moreover, the “Inh. (%) (Inhibition)” value (MBHA with DNA substrate) is given as −7.6%.

Take `N[C@H](C(=O)O)[C@@H]1CC(Cl)=NO1` [Compound 163501]: under “MBHA with a DNA substrate”, the “Inh. (%) (Inhibition)” value is given as 10.3%. Moreover, the “Int.* (Ratio) (Interference)” value under setting [2] is 0.91 Ratio.

Values taken from patent publication US9464064B2, “HCV helicase inhibitors and methods of use thereof” (University of Kansas, priority 2011, dated 2016).
